The results in this text go back to patent publication US20230172994A1, “METHODS OF PROMOTING VASCULOGENESIS” (TissueTech, Inc., priority 2019, published 2023).

Holding throughout (assay type): cell-based, human
Experiment [1] concerns P10 LNC. Put plainly: Time course mRNA expression by qPCR. The procedure: (§1) Cell culture: For time course study, 1×10^5/ml of P10 LNC was seeded on three substrates: 3D Matrigel™, HA, or HC-HA/PTX3 in MESCM at 5, 15, 30, 60 mins, 24 h and 48 h (Table 2).
qPCR: Comparisons were made of mRNA expression of HIF1α, HIF1β, HIF2α, SDF-1, CXCR4, Hes1 at 5, 15, 30, 60, 120, 240 min or 24 and 48 h.
Cell culture: 1×10^5/ml of P10 LNC was seeded on three substrates: 3D Matrigel™ HA, or HC-HA/PTX3 in MESCM for 48 h. For time course study on HC-HA/PTX3, P10 LNC will be treated HC-HA/PTX3 for 5, 15, 30, 60 mins, 24 h and 48 h.
qPCR: Comparison mRNA expression VEGF, PDGFα, CD31 and IGF-1 for angiogenesis and NGF and p75^NTR for neurogenesis at 5, 15, 30, 60, 120, 240 min 24 or 48 h on 3D MG, immobilized HA and immobilized HC-HA/PTX3.
(§2) For the siRNA knockdown, 80% confluent P10 LNC on 6-well coated MG were subjected to transfection by mixing 200 μL of serum-free, antibiotic-free MESCM with 4 μL of HiPerFect siRNA transfection reagent (Final dilution, 1:300) and 6 μL of 20 μM of scRNA or siRNAs for BMPR1A, BMPR1B, BMPR2, and ACVR1 at the final concentration of 100 nM, drop-wise, followed by culturing in 1 mL of fresh MESCM at 37° C. for 24 h before soluble HC-HA/PTX3 was added at a final concentration of 20 μg/mL in MESCM.
Total RNAs were extracted from expanded LNC by RNeasy Mini Kit (Qiagen, Valencia, Calif.) according to manufacturer's guideline and 1-2 ug of RNA extract was reverse transcribed to cDNA with reverse-transcribed using Applied Biosystem™ High Capacity Reverse Transcription Kit (Thermo Fisher, Santa Clara, Calif.) using primers. The resultant cDNAs were amplified by specific TaqMan gene expression assay mix and universal PCR master mix in QuantStudio™ 5 Real Time PCR System (Thermo Fisher, Santa Clara, Calif.) with real-time RT-PCR profile consisting of 10 min of initial activation at 95° C., followed by 40 cycles of 15 sec denaturation at 95° C., and 1 min annealing and extension at 60° C. […] Threshold cycle number (Ct) was calculated with QuantStudio Design and. […] The relative gene expression data were analyzed by the comparative CT method (ΔΔCT). […]
(In general: Quantitative PCR measures a nucleic acid by following its amplification.)

In experiment [2] the test system is P10 LNC. Nature of the experiment: Subcellular fractionation and Western blotting. The procedure:
Nuclear and cytoplasmic fractions were prepared using the NE-PER® Nuclear and Cytoplasmic Extraction Reagents Kit (Pierce, Rockford, Ill., USA) as per manufacturer's instruction. Briefly, the treated P10 LNC were washed once on cold PBS and centrifuged at 500 g for 5 min.
The cell pellet was suspended in 100 μL of cytoplasmic extraction reagent I containing protease inhibitor by vortexing. The suspension was incubated on ice for 10 min followed by the addition of 6 μL of a second cytoplasmic extraction reagent II, vortexed for 5s, incubated on ice for 1 min and centrifuged for 5 min at 16 000 g. The supernatant fraction (cytoplasmic extract) was transferred to a pre-chilled tube. The insoluble pellet fraction, which contains crude nuclei, was resuspended in 50 μL of nuclear extraction reagent by vortexing during 15s three times and incubated on ice for 10 min each, then centrifuged for 10 min at 16 000 g. The resulting supernatant, constituting the nuclear extract, was used for the subsequent experiments. Protein concentration was quantitated using the BCA protein assay kit (Pierce). […] Immunoreactive proteins were detected with Western Lighting Chemiluminescence (PerkinElmer, Waltham, Mass.) and images captured by GE ImageQuant LAS 4000 (GE Healthcare Biosciences, Pittsburgh, Pa.).

Experiment [3] relates to P10 LNC. Put plainly: Immunofluorescence staining (cytospin), nuclear translocation. On the procedure:
Immunostaining: LNC were then subjected to cytospin to determine nuclear translocation of HIF1α, HIF1β, HIF2α, SDF-1, CXCR4, and Hes1 at 5, 15, 30 and 60 mins.
Single cells of LNC or CSC at different passages were harvested with 0.05% trypsin and 1 mM EDTA at 37° C. for 10 min and prepared for cytospin using Cytofuge (StatSpin Inc., Norwood, Mass.) at 1000 g for 8 min. Cells were fixed with 4% formaldehyde, pH 7.0, for 15 min at room temperature, permeabilized with 0.2% Triton X-100 in PBS for 15 min and blocked with 2% bovine serum albumin (BSA) for 1 h before incubated with primary antibodies for 16 h at 4° C. After 3 washes with PBS, the corresponding Alexa Fluor-conjugated secondary IgG (all 1:100 dilution) were incubated for 60 min and 3 washing with PBS. After 3 washes with PBS, the second primary antibodies were incubated for 60 min and followed with the corresponding Alex Fluor-conjugated secondary IgG. The nucleus was counterstained with Hoechst 33342 before being analyzed with Zeiss LSM 700 confocal microscope (Carl Zeiss, Thornwood, N.Y.). Corresponding mouse and rabbit sera were used as negative controls for primary monoclonal and polyclonal antibodies, respectively.

For experiment [4], the system named is P10 LNC. Put plainly: Cell aggregation / sphere formation by phase contrast microscopy. The procedure: as §1
For expansion, single cells derived from limbal clusters or CSC after digestion with 0.25% trypsin and 1 mM EDTA (T/E) were seeded at 1×10^4/cm^2 in the 6-well plate pre-coated with 5% Matrigel™ in MESCM and cultured in humidified 5% CO2 with media change every 3-4 days for total 6-7 days. For cells culture in three-dimensional (3D) Matrigel, Matrigel was prepared by adding 50% Matrigel diluted in MESCM per chamber of an 8-well chamber slide following incubation at 37° C. for 60 min. LNC cells were seeded in 3D Matrigel and cultured for 24 h or 48 h in MESCM.
as §2

The test system of experiment [5] is P4 LNC. Put plainly: Immunofluorescence staining (cytospin), nuclear translocation. On the procedure:
Cell culture: For time course study, 1×10^5/ml of P4 LNC were seeded on substrates HA or HC-HA/PTX3 in MESCM at 5, 15, 30, 60 min, 24 h and 48 h (Table 3).
Immunostaining: LNC then were subjected to cytospin to determine nuclear translocation of HIF1α, HIF1β, HIF2α, SDF-1, CXCR4, and Hes1 at 5, 15, 30 and 60 min.

Another experiment concerns HUVEC or pericytes (LNC). Nature of the experiment: Cell proliferation by Edu nuclear staining. The following applies: HUVEC or pericytes (LNC) alone. An excerpt: Cells: GFP HUVEC (P3) were purchased from Neuromics (Cat #GF01). These cells were isolated from normal human umbilical vein and transfected with GFP-lentiviral particle at passage 1. Puromycin resistant GFP HUVEC were maintained on fibronectin coated solution in Endo-growth medium containing 5% FBS and growth supplement until passage 3. Cells were split 1:3 every three days when ˜70%-90% confluence is reached. Cells of passage 3-8 were used for all experiments.
LNC (P2-P5) was expanded in MESCM containing 4 ng/ml bFGF and 10 ng/ml LIF on 6-well plastic coated with 5% Matrigel™

A further experiment has as its system Rac1. Put plainly: Rho GTPase activity in LNC. The following applies: within 60 minutes, HC-HA/PTX3 active at 5 and 15 min, reduced at 30 min.
The subject of experiment [6] is P4 LNC. Put plainly: Notch signaling and transcript expression in P4 LNC on plastic, 3D Matrigel or immobilized HC-HA/PTX3.
The test system of a further experiment is LEPC and LNC. Put plainly: Blocking Notch signaling in LEPC+LNC on immobilized HC-HA/PTX3. The procedure:
FIGS. 41A-41C illustrate blocking Notch signaling inhibits BMP and non-canonical Wnt in LEPC and LNC on immobilized HC-HA/PTX3 at 48 hours. FIG. 41A illustrates a graph of mRNA levels of various genes following treatment of HC-HA/PTX3 and HC-HA/PTX3/DAPT in LNCS renunioned with LEPC. FIG. 41B illustrates immunostaining with various markers.

Consider `c1cc(CN2CCCNCCNCCCNCC2)ccc1CN1CCCNCCNCCCNCC1` [AMD3100], for which the “HIF-1α and HIF-1β transcripts” value with P10 LNC [1] (addition of AMD3100) is listed as “upregulated two peaks”. Further, the “transcript levels of BMP2, BMP4 and BMP6, effect of inhibitor” value in the experiment with P10 LNC [1] (throughout 48 h, with soluble HC-HA/PTX3) is listed as “aborted”. Further, in the experiment with P10 LNC [1] (with soluble HC-HA/PTX3), the “Pax6, p75NTR, NGF, Musashi-1, Msx-1 and FoxD3 transcripts, effect of inhibitor” value is listed as “significant downregulation”. Also, the “nuclear pSmad1/5” value with P10 LNC [2] (5, 15, 30 min) was “not promoted”. Besides, the “CXCR4 and Pax6 protein in cytoplasmic and nuclear fractions” value in the experiment with P10 LNC [2] (15 and 30 min, AMD3100 all time points) was “remain in cytoplasmic fraction”. Besides, in the experiment with P10 LNC [3] (60 min period, P10 LNC, soluble HC-HA/PTX3 with or without AMD3100, or 3D MG), the CXCR4 staining entry is recorded as “reverted to that of 3D MG”. In the experiment on P10 LNC [3] (P10 LNC, soluble HC-HA/PTX3 with or without AMD3100), the “nuclear staining of pSmad1/5” value was “absent nuclear staining”. The “immunofluorescence of SDF-1” value in the experiment with P10 LNC [3] (throughout 60 min) is reported as “became negative”.

For hyaluronic acid [HA], the “cell aggregation as early as 60 min” value with P10 LNC [4] is “not”. Moreover, the “nuclear PP2A C subunit” value with P10 LNC [3] (5 and 30 min, comparators entire 60 min) was “significantly less expression”. For the same molecule, the CXCR4 localisation entry with P10 LNC [3] (HC-HA/PTX3: as early as 15 min, prominent at 30 min, no longer nuclear at 60 min) was “membrane translocation”. Further, the “staining of HIF1α and HIF1β” value with P10 LNC [3] (HC-HA/PTX3: at 5 min, HIF1α sustained till 15 and 30 min) is “both cytoplasmic and nuclear”. Besides, the “nuclear p-PHD2 (serine 125)” value in the experiment with P10 LNC [3] (HC-HA/PTX3 at 5 and 15 min, HA and 3D MG throughout 60 min) is listed as “maintained nuclear Phospho-PHD2”. In addition, the “earliest nucleus Hes1” value with P10 LNC [3] (P10 LNC) is recorded as 15 min. Besides, in the experiment with P4 LNC [5], the HIF2α entry is recorded as “No changes”; the “NICD and SDF1” value is listed as “No changed”; the “time of HIF1α nuclear translocation” value is given as “did the same”; the “time of HIF1β nuclear translocation” value fell in the range of 5 to 30 min. Further, the “time of Hes1 nuclear translocation” value in the experiment on P4 LNC [5] is 5 to 15 min. In addition, the CXCR4 nuclear translocation result with P4 LNC [5] (5, 30 min, transient) was “does not”. Moreover, the “cell proliferation (Edu nuclear staining)” value in the experiment with HUVEC or pericytes (LNC) was “promoted cell proliferation”. Also, the “Rac1 GTPase activities” value with Rac1 is listed as “gradual decline”.

On to `C[C@H](NC(=O)Cc1cc(F)cc(F)c1)C(=O)N[C@H](C(=O)OC(C)(C)C)c1ccccc1` [DAPT], for which the “cell aggregation of LNC on HC-HA/PTX3, effect of inhibitor” value with P4 LNC [6] is given as “did not prevent”. For the same molecule, the “Notch1/2/3/Jagged 1/Hes1 signaling with MET epithelial phenotype (p63α, Pax6, Sox9), effect of inhibitor” value with P4 LNC [6] (LNC on HC-HA/PTX3) is “further promoted”. Also, the “nuclear psmad/1/5/8 and c-Jun” value with LEPC and LNC (LEPC+LNC on immobilized HC-HA/PTX3) was “absence”. Also, the quiescence epithelium markers entry in the experiment with LEPC and LNC (LEPC+LNC on immobilized HC-HA/PTX3, 48 hours) was “significantly downregulated”.
